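Five concentrations, 48 hours, 96-well plates. At the GI50, growth is halved.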 The source made the active and inactive calls. Rule as the data show it: active = GI50 up to about 1.1 µM and inactive = higher.
How the values were obtained:
Test in all cases: NCI tumour cell line growth inhibition, 48 h
UACC-257 = test system: UACC-257
EKVX = test system: EKVX
SF-539 = test system: SF-539
HT-29 = test system: HT-29
SF-295 = test system: SF-295
UACC-62 = test system: UACC-62
LOX IMVI = test system: LOX IMVI
CAKI-1 = test system: CAKI-1
NCI-H460 = test system: NCI-H460
OVCAR-4 = test system: OVCAR-4
COLO 205 = test system: COLO 205
CCRF-CEM = test system: CCRF-CEM
HCT-15 = test system: HCT-15
LXFL 529 = test system: LXFL 529
NCI-H226 = test system: NCI-H226
KM-20L2 = test system: KM-20L2
MCF7 = test system: MCF7
MDA-N = test system: MDA-N
PC-3 = test system: PC-3
MDA-MB-231 = test system: MDA-MB-231

Row | SMILES | GI50 (UACC-257) | GI50 (EKVX) | GI50 (SF-539) | GI50 (HT-29) | GI50 (SF-295) | GI50 (UACC-62) | GI50 (LOX IMVI) | GI50 (CAKI-1) | GI50 (NCI-H460) | GI50 (OVCAR-4) | GI50 (COLO 205) | GI50 (CCRF-CEM) | GI50 (HCT-15) [µM] | GI50 (LXFL 529) | GI50 (NCI-H226) | GI50 (KM-20L2) | GI50 (MCF7) | GI50 (MDA-N) | GI50 (PC-3) | GI50 (MDA-MB-231)
1 | C[Si](C)(C)C1(Sc2ccccc2)SCCCS1 | 38.7 µM (inactive) | 47.9 µM (inactive) | 24.9 µM (inactive) | 38.5 µM (inactive) | 54.3 µM (inactive) | 35 µM (inactive) | 31.6 µM (inactive) | 54.6 µM (inactive) | 52.8 µM (inactive) | 57.1 µM (inactive) | 41.5 µM (inactive) | 14.8 µM (inactive) | 27.2 | 34.4 µM (inactive) | – | – | – | – | – | –
2 | CC#C[C@@]1(O)CCCCC1O (stereo partly drawn) | > 100 µM (inactive) | > 100 µM (inactive) | > 100 µM (inactive) | > 100 µM (inactive) | > 100 µM (inactive) | > 100 µM (inactive) | > 100 µM (inactive) | – | > 100 µM (inactive) | > 100 µM (inactive) | > 100 µM (inactive) | > 100 µM (inactive) | > 100 | – | > 100 µM (inactive) | > 100 µM (inactive) | – | – | – | –
3 | O=C(NCCCCCCNC(=O)n1cc(F)c(=O)[nH]c1=O)NCCCOCCOCCOCCOCCOCCOCCOCCOCCOCCOCCOCCOCCOCCOCCOCCOCCOCCOCCOCCOCCOCCCNC(=O)C(O)C(O)C(O)C(O)CO (stereo not drawn) | > 90.2 µM (inactive) | 85.9 µM (inactive) | 1.81 µM (inactive) | 17.5 µM (inactive) | 48.9 µM (inactive) | 28.8 µM (inactive) | 16.3 µM (inactive) | 22.5 µM (inactive) | 5.37 µM (inactive) | > 100 µM (inactive) | 23.8 µM (inactive) | 43.9 µM (inactive) | 21 | – | > 100 µM (inactive) | 22.5 µM (inactive) | 4.72 µM (inactive) | 33.9 µM (inactive) | 64.3 µM (inactive) | > 100 µM (inactive)
4 | CC(=O)Oc1c2c(c(O)c3ccccc13)C(n1cnc3c(ncn3C3OC(CO)C4OC(C)(C)OC43)c1=N)CCC2 (stereo not drawn) | 10.2 µM (inactive) | 22.2 µM (inactive) | 18.2 µM (inactive) | 13.2 µM (inactive) | 13.9 µM (inactive) | 13.9 µM (inactive) | 4.81 µM (inactive) | 25.4 µM (inactive) | 23.3 µM (inactive) | – | 16.9 µM (inactive) | 5.24 µM (inactive) | 14.8 | – | 23.3 µM (inactive) | 21.6 µM (inactive) | – | – | – | –
5 | O=C1COc2cc3c(cc2N1)SCCC(=O)N3 | > 100 µM (inactive) | > 100 µM (inactive) | > 100 µM (inactive) | > 100 µM (inactive) | > 100 µM (inactive) | > 100 µM (inactive) | – | > 100 µM (inactive) | – | > 100 µM (inactive) | > 100 µM (inactive) | > 100 µM (inactive) | – | > 100 µM (inactive) | > 100 µM (inactive) | – | – | – | – | –
6 | NC(=O)NC12CC3CC(CC(F)(C3)C1)C2 | > 100 µM (inactive) | > 100 µM (inactive) | > 100 µM (inactive) | > 100 µM (inactive) | – | > 100 µM (inactive) | > 100 µM (inactive) | – | > 100 µM (inactive) | – | > 100 µM (inactive) | > 100 µM (inactive) | – | > 100 µM (inactive) | – | > 100 µM (inactive) | – | – | – | –
7 | CC(C#N)c1cn(S(=O)(=O)c2ccccc2)c2ccccc12 (stereo not drawn) | 31.3 µM (inactive) | – | 68.1 µM (inactive) | > 100 µM (inactive) | 34.4 µM (inactive) | 55.1 µM (inactive) | – | 34.6 µM (inactive) | 61.7 µM (inactive) | 34 µM (inactive) | > 100 µM (inactive) | 48.8 µM (inactive) | 53.6 | 34.9 µM (inactive) | 25.7 µM (inactive) | 67.8 µM (inactive) | – | – | – | –
8 | [N-]=[N+]=CC(=O)CCC(N)C(=O)O (stereo not drawn) | 11 µM (inactive) | 4.83 µM (inactive) | 0.482 µM (active) | 0.385 µM (active) | 1.28 µM (inactive) | 2.88 µM (inactive) | 0.689 µM (active) | 3.8 µM (inactive) | 1.38 µM (inactive) | 29.9 µM (inactive) | 1.15 µM (inactive) | 0.676 µM (active) | 0.815 | – | 39.6 µM (inactive) | 0.226 µM (active) | 0.474 µM (active) | 1.32 µM (inactive) | 0.741 µM (active) | 8.63 µM (inactive)
9 | O=C(Nc1cccc([N+](=O)[O-])c1)C(=O)C(C(=O)c1ccccc1-c1ccccc1)C1OC(=O)c2ccccc21 (stereo not drawn) | 20.1 µM (inactive) | 25.6 µM (inactive) | 14.5 µM (inactive) | 38.8 µM (inactive) | 22 µM (inactive) | 19.5 µM (inactive) | 17 µM (inactive) | – | 25.9 µM (inactive) | – | 20 µM (inactive) | 22.9 µM (inactive) | – | 13.1 µM (inactive) | 5.96 µM (inactive) | 23.3 µM (inactive) | – | – | – | –
10 | COc1ccc2ccc([Se]c3ccc4ccc(OC)cc4c3)cc2c1 | > 100 µM (inactive) | – | > 100 µM (inactive) | 50.1 µM (inactive) | 74.6 µM (inactive) | > 100 µM (inactive) | > 100 µM (inactive) | 38.7 µM (inactive) | 89.1 µM (inactive) | 20.6 µM (inactive) | > 100 µM (inactive) | 49.8 µM (inactive) | > 100 | > 100 µM (inactive) | 63.1 µM (inactive) | > 100 µM (inactive) | – | – | – | –
11 | Cc1ccc(C[P+]2(c3ccccc3)CCCCC2)cc1.[O-][Cl+3]([O-])([O-])[O-] | 6.28 µM (inactive) | 43.9 µM (inactive) | 25 µM (inactive) | 21.1 µM (inactive) | 44.2 µM (inactive) | 23 µM (inactive) | 26.2 µM (inactive) | – | 37.6 µM (inactive) | 41.4 µM (inactive) | 14 µM (inactive) | 38 µM (inactive) | 51.6 | 14 µM (inactive) | 48.1 µM (inactive) | 31.2 µM (inactive) | – | – | – | –
12 | O=C1NC2OC(CO)C(O)C(O)C2O1 (stereo not drawn) | > 100 µM (inactive) | > 100 µM (inactive) | > 100 µM (inactive) | > 100 µM (inactive) | > 100 µM (inactive) | > 100 µM (inactive) | > 100 µM (inactive) | > 100 µM (inactive) | > 100 µM (inactive) | > 100 µM (inactive) | > 100 µM (inactive) | > 100 µM (inactive) | > 100 | > 100 µM (inactive) | – | > 100 µM (inactive) | – | – | – | –
13 | CCSCN(C)c1nc(N(C)C)nc(N(C)C)n1 | 43 µM (inactive) | > 100 µM (inactive) | 36.1 µM (inactive) | 36.5 µM (inactive) | 92.3 µM (inactive) | 40.4 µM (inactive) | 41.3 µM (inactive) | 68.2 µM (inactive) | 39.8 µM (inactive) | 72.3 µM (inactive) | 75.2 µM (inactive) | 48.1 µM (inactive) | 42.5 | 45.3 µM (inactive) | – | 55 µM (inactive) | – | – | – | –
14 | CCC(CO)Nc1nc2c(c(=O)n(C)c(=O)n2C)n1CCO (stereo not drawn) | > 100 µM (inactive) | > 100 µM (inactive) | > 100 µM (inactive) | > 100 µM (inactive) | > 100 µM (inactive) | > 100 µM (inactive) | – | – | – | – | > 100 µM (inactive) | – | > 100 | > 100 µM (inactive) | > 100 µM (inactive) | > 100 µM (inactive) | – | – | – | –
15 | CC1=CC(/C=C(\C)CCCc2ccoc2)C2(OC(=O)C(C)=C2O)[C@H]2C1CC[C@@H]2C (stereo partly drawn) | 29.5 µM (inactive) | 31.7 µM (inactive) | 17.5 µM (inactive) | 34.3 µM (inactive) | 20.7 µM (inactive) | 14.4 µM (inactive) | 21.8 µM (inactive) | 32.1 µM (inactive) | – | – | 21.9 µM (inactive) | 22.1 µM (inactive) | 15.5 | 18.7 µM (inactive) | 22.7 µM (inactive) | – | – | – | – | –
16 | Nc1ccc(C(=O)N/C(=C\C=C\c2ccco2)c2nc3c(O)nc(S)nc3[nH]2)cc1 | – | > 100 µM (inactive) | > 100 µM (inactive) | > 100 µM (inactive) | > 100 µM (inactive) | > 10 µM (inactive) | – | > 100 µM (inactive) | – | > 100 µM (inactive) | > 100 µM (inactive) | > 100 µM (inactive) | > 100 | > 100 µM (inactive) | – | 87.1 µM (inactive) | – | – | – | –
17 | COC1CC(OS(=O)(=O)c2ccc(C)cc2)C(OS(=O)(=O)c2ccc(C)cc2)C(COS(=O)(=O)c2ccc(C)cc2)O1 (stereo not drawn) | 8.89 µM (inactive) | 11.2 µM (inactive) | 1.88 µM (inactive) | 3.31 µM (inactive) | 1.55 µM (inactive) | 5.61 µM (inactive) | – | 2.72 µM (inactive) | 4.3 µM (inactive) | 0.336 µM (active) | 37.9 µM (inactive) | 74.3 µM (inactive) | 5.35 | 5.77 µM (inactive) | 3.23 µM (inactive) | 12.9 µM (inactive) | – | – | – | –
18 | NC(=O)C1C(=O)Oc2cccnc21 (stereo not drawn) | 89.9 µM (inactive) | > 100 µM (inactive) | > 100 µM (inactive) | > 100 µM (inactive) | > 100 µM (inactive) | > 100 µM (inactive) | > 100 µM (inactive) | – | 86.7 µM (inactive) | – | > 100 µM (inactive) | > 100 µM (inactive) | > 100 | – | 96.2 µM (inactive) | > 100 µM (inactive) | – | – | – | –
19 | Cc1cccc(C(C)(C)C)c1NC(=O)CC1Sc2ccccc2NC1=O (stereo not drawn) | 36.2 µM (inactive) | > 100 µM (inactive) | > 100 µM (inactive) | 43 µM (inactive) | > 100 µM (inactive) | 68.7 µM (inactive) | – | 87.3 µM (inactive) | 34 µM (inactive) | > 100 µM (inactive) | 24 µM (inactive) | 55.7 µM (inactive) | – | 52.6 µM (inactive) | 94.2 µM (inactive) | > 100 µM (inactive) | – | – | – | –

From ChEMBL document CHEMBL1201862, “PubChem BioAssay data set” (2004)
